Measured values as given in US20260265267A1, “NOVEL COMPOUNDS WITH MTORC2-INHIBITORY ACTIVITY AND USES THEREOF” (Aliad Biopharma, priority 2023, published 2026).

Columns and labels:
[1] = tested on: LC3-II; assay: LC3-II levels in primary cultured cerebral neurons; assay type: cell-based, SD mice; conditions: for effect on LC3-II: 500 nM or 100 nM, time course to 24 hours; for LC3-II (% control): 24 hours
Protocol: Specifically, primary neural cells were cultured from the cerebral cortex of E16 embryos of SD […] with a gestational age 16-day (Orient Bio). The extracted brain was separated into the left and right hemispheres, the meninges were removed, and the brains were treated with trypsin in Ca^2+/Mg^2+-free HBSS solution. […] The cells were seeded at a density of 19,000 cells/cm^2 onto 35 mm culture dishes coated with 50 μg/ml poly-D-Lysine (Sigma, P0899) and 1 μg/ml laminin (Invitrogen, 23017-015), and then maintained in neurobasal complete media supplemented with B27 (Gibco, 17504-044) in a 5% CO2 incubator.
Therefore, the evaluation of mTORC2 inhibitory activity in primary cultured cerebral cells was conducted using the same method as in Experimental Example 1, except that each compound was treated at concentrations of 500 nM or 100 nM for 24 hours. The time-dependent changes in Akt Ser473 phosphorylation, Akt Thr308 phosphorylation, and LC3-II levels were measured by Western blot analysis.

[2] = tested on: amyloid plaques in the brain of 5×FAD mouse; assay: Amyloid plaque removal in the brain of 5×FAD mice (6E10 antibody, thioflavin-S staining); assay type: in vivo; conditions: 5 mg/kg, 14 days
Protocol: (§1) In order to evaluate the efficacy of HN2210, HN2213, and HN2313 on Alzheimer's disease-related symptoms, specifically regarding 1) memory and cognitive impairment, 2) amyloid plaques, 3) neurofibrillary tangles (NFTs), and 4) brain inflammation, an in vivo efficacy assessment of HN2210, HN2213 and HN2313 was conducted using 5×FAD Alzheimer's disease model mice. The 5×FAD mice were purchased from Jackson Lab, USA (Cat #034840-JAX) and crossed once with C57bl6 mice to produce F1 heterozygous offspring (Het). The compound was administered via intraperitoneal injection to 6-month-old 5×FAD Het mice, followed by behavioral testing. The normal control mice, which were littermates of the 5×FAD Het mice, were aged to 6 months and received DMSO injection at the same volume.
In order to assess the amyloid plaque removal effect of HN2210, HN2213, and HN2313 compounds in the brains of Alzheimer's disease model mice, the following test was conducted using 5×FAD-DMSO mice without compound treatment, 5×FAD mice treated with HN2210, HN2213, or HN2313 compounds, and normal mice as controls.
Specifically, brain slices sectioned in the coronal plane were selected for every fifth slice from the anterior to the posterior parts of the brain and stained with the 6E10 antibody or thioflavin-S. The 6E10 antibody stains both […] and amyloid plaques, while thioflavin-S specifically stains amyloid plaques. DNA was co-stained with DAPI. The dentate gyrus (DG) region of the hippocampus, where amyloid plaques tend to accumulate heavily, was examined using a confocal scanning microscope, and the images are shown in FIGS. 9a to 9c.

[3] = molecular target: T1, mTORC2 (Homo sapiens, UniProt P42345); assay: mTORC2 inhibitory activity in HeLa cells (Akt Ser473 phosphorylation, Western blot); assay type: cell-based; conditions: for selective inhibition of mTORC2: 40 μM, versus mTORC1; for selective inhibition of mTORC2 / remaining activity at 40 µM: 9 hours; for remaining activity at 40 µM: read-out: pSer473-AKT/AKT (% control)
T1 construct: the following experiments were conducted in HeLa cells; endogenous in cells; host or cells: HeLa
How it was run: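 HeLa cells treated with compounds at 40 μM for 9 hours, then lysed and analysed by Western blot with chemiluminescent detection. Phospho-Akt Ser473 signal normalised to total Akt and expressed as percent of DMSO vehicle control.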

[4] = tested on: activated microglia in the brain of 5×FAD mice; assay: Anti-inflammatory effect in the brain of 5×FAD mice (IBA-1 antibody staining); assay type: in vivo; conditions: 5 mg/kg, 14 days
Protocol: as §1
In order to assess the anti-inflammatory effect of HN2210, HN2213, and HN2313 compounds in the brains of Alzheimer's disease model mice, the following test was conducted using 5×FAD-DMSO mice without compound treatment, 5×FAD mice treated with HN2210, HN2213, or HN2313 compounds, and normal mice as controls. Specifically, brain inflammation is mediated by the activation of microglia, which can be stained using the IBA-1 antibody. Therefore, inflammation in the hippocampus of 5×FAD mouse can be assessed using immunostaining with the IBA-1 antibody. Brain slices were double-stained with the IBA-1 antibody and DAPI to label nuclei, and the dentate gyrus region of the hippocampus was observed under a confocal scanning microscope.

selective inhibition of mTORC2 [3]	remaining activity at 40 µM [3] [%]	inhibition at 40 µM ([3]; HeLa, 9 h, read-out: reduction in Akt Ser473 phosphorylation compared to the control group) [%]	Structure (SMILES)	effect on LC3-II [1]	LC3-II (% control) ([1]; 500 nM)	reduction of 6E10 signals in the dentate gyrus compared to the 5×FAD-DMSO group [2] [%]	reduction of thioflavin-S signals in the dentate gyrus compared to the 5×FAD-DMSO group [2] [%]	reduction of IBA-1 antibody signals in the dentate gyrus compared to the 5×FAD-DMSO group [4] [%]	LC3-II (% control) ([1]; 100 nM)
selectively inhibit mTORC2	43		O=C1c2cc(F)c(N3CCOCC3)cc2COc2cc3c(cc21)OCO3 [HN2210, 8-(morpholino)-9-fluoro[2]benzoxepino[3,4-f]-1,3-benzodioxol-11(6H)-one]	markedly increased	348	53	38	50	
selectively inhibit mTORC2	51		O=C1c2cc(F)c(NCc3ccccc3)cc2COc2cc3c(cc21)OCO3 [HN2213, 8-(benzylamino)-9-fluoro[2]benzoxepino[3,4-f]-1,3-benzodioxol-11(6H)-one]	significantly increased	336	29	28	24	
	80	> 20	O=C1c2cc(F)c(NC3CCCC3)cc2COc2cc3c(cc21)OCO3 [HN2313, 8-(cyclopentylamino)-9-fluoro-[1,3]dioxolo[4′,5′:4,5]benzo[1,2-b]benzo[e]oxepin-11(6H)-one]	not affected		38	35	50	86
